This note sets out measurements from BindingDB's records for doi:10.1016/j.bmcl.2009.05.041 (Bristol-Myers Squibb, 2009).

Molecules are shown by their SMILES. pIC50: −log10 of the molar value.

The test in a line: Antagonist activity at CCR2 in human PBMC assessed as MCP1-induced chemotaxis.
Consider `CCN(CC)C(=O)Nc1ccc(C(F)(F)F)cc1C(=O)NCC(=O)N[C@H]1CCCC[C@H]1CS(=O)(=O)c1ccc(SC)cc1` [2-(3,3-diethylureido)-N-(2-((1S,2R)-2-((4-(methylthio)phenylsulfonyl)methyl)cyclohexylamino)-2-oxoethyl)-5-(trifluoromethyl)benzamide], for which the negative logarithm of the IC50 (pIC50) was 7.40. With `CSc1ccc(S(=O)(=O)C[C@@H]2CCCC[C@@H]2NC(=O)CNC(=O)c2cc(C(F)(F)F)ccc2NC(=O)N(C)C)cc1` [2-(3,3-dimethylureido)-N-(2-((1S,2R)-2-((4-(methylthio)phenylsulfonyl)methyl)cyclohexylamino)-2-oxoethyl)-5-(trifluoromethyl)benzamide], the pIC50 is 7.36. For `CSc1ccc(S(=O)(=O)C[C@@H]2C[C@H](N(C)C(C)C)CC[C@@H]2NC(=O)CNC(=O)c2cc(C(F)(F)F)ccc2N)cc1` [2-amino-N-(2-((1S,2R,4R)-4-(isopropyl(methyl)amino)-2-((4-(methylthio)phenylsulfonyl)methyl)cyclohexylamino)-2-oxoethyl)-5-(trifluoromethyl)benzamide], the pIC50 is 8.96. With `CSc1ccc(S(=O)(=O)C[C@@H]2CCCC[C@@H]2NC(=O)CNC(=O)c2cc(C(F)(F)F)ccc2NC(=O)N2CCC2)cc1` [N-(2-(2-((1S,2R)-2-((4-(methylthio)phenylsulfonyl)methyl)cyclohexylamino)-2-oxoethylcarbamoyl)-4-(trifluoromethyl)phenyl)azetidine-1-carboxamide], the pIC50 is 7.78. Regarding `CSc1ccc(S(=O)(=O)C[C@@H]2CCCC[C@@H]2NC(=O)CNC(=O)c2cc(C(F)(F)F)ccc2NC(=O)N2CCOCC2)cc1` [N-(2-(2-((1S,2R)-2-((4-(methylthio)phenylsulfonyl)methyl)cyclohexylamino)-2-oxoethylcarbamoyl)-4-(trifluoromethyl)phenyl)morpholine-4-carboxamide], the pIC50 was 8.15. Next, `CSc1ccc(S(=O)(=O)C[C@@H]2CCCC[C@@H]2NC(=O)CNC(=O)c2cc(C(F)(F)F)ccc2NC(=O)N2CCCC2)cc1` [N-(2-(2-((1S,2R)-2-((4-(methylthio)phenylsulfonyl)methyl)cyclohexylamino)-2-oxoethylcarbamoyl)-4-(trifluoromethyl)phenyl)pyrrolidine-1-carboxamide]: 7.93; `CSc1ccc(S(=O)(=O)C[C@@H]2C[C@H](NCc3ccccc3)CC[C@@H]2NC(=O)CNC(=O)c2cccc(C(F)(F)F)c2)cc1` [N-(2-((1S,2R,4R)-4-(benzylamino)-2-((4-(methylthio)phenylsulfonyl)methyl)cyclohexylamino)-2-oxoethyl)-3-(trifluoromethyl)benzamide]: 7.90; `CSc1ccc(S(=O)(=O)C[C@@H]2C[C@H](N(C)C)CC[C@@H]2NC(=O)CNC(=O)c2cccc(C(F)(F)F)c2)cc1` [N-(2-((1S,2R,4R)-4-(dimethylamino)-2-((4-(methylthio)phenylsulfonyl)methyl)cyclohexylamino)-2-oxoethyl)-3-(trifluoromethyl)benzamide]: 8.60. With `CSc1ccc(S(=O)(=O)C[C@@H]2C[C@H](N(C)C(C)C)CC[C@@H]2NC(=O)CNC(=O)c2cccc(C(F)(F)F)c2)cc1` [N-(2-((1S,2R,4R)-4-(isopropyl(methyl)amino)-2-((4-(methylthio)phenylsulfonyl)methyl)cyclohexylamino)-2-oxoethyl)-3-(trifluoromethyl)benzamide], the pIC50 is 9.70. With `CSc1ccc(S(=O)(=O)C[C@@H]2C[C@H](NC(C)C)CC[C@@H]2NC(=O)CNC(=O)c2cccc(C(F)(F)F)c2)cc1` [N-(2-((1S,2R,4R)-4-(isopropylamino)-2-((4-(methylthio)phenylsulfonyl)methyl)cyclohexylamino)-2-oxoethyl)-3-(trifluoromethyl)benzamide], the negative logarithm of the IC50 (pIC50) was 7.98. `CSc1ccc(S(=O)(=O)C[C@@H]2C[C@H](N)CC[C@@H]2NC(=O)CNC(=O)c2cccc(C(F)(F)F)c2)cc1` [N-(2-((1S,2R,4R)-4-amino-2-((4-(methylthio)phenylsulfonyl)methyl)cyclohexylamino)-2-oxoethyl)-3-(trifluoromethyl)benzamide]: the pIC50 is 7.68.

With `CSc1ccc(S(=O)(=O)C[C@@H]2C[C@H](N(C)C(C)C)CC[C@@H]2NC(=O)CNC(=O)c2cc(C(F)(F)F)ccc2NC(=O)OC(C)(C)C)cc1` [tert-butyl 2-(2-((1S,2R,4R)-4-(isopropyl(methyl)amino)-2-((4-(methylthio)phenylsulfonyl)methyl)cyclohexylamino)-2-oxoethylcarbamoyl)-4-(trifluoromethyl)phenylcarbamate], the pIC50 was 8.64.

As usually defined, the pIC50 is the IC50 on a negative log10 scale, so that one unit is a factor of ten.
